Patent publication US20100311084A1, “METHODS FOR PREDICTING A PATIENT'S RESPONSE TO EGFR INHIBITORS” (PRECISION THERAPEUTICS, INC., priority 2008, published 2010)
Counter-ions that a name gives are not always drawn.

How the values were obtained:
MCF7 = experiment: Chemoresponse assay, lapatinib, MCF7; format: cell-based; details: 72 hours
Protocol: (§1) The chemoresponse assay for lapatinib was developed using four different immortalized cell lines (SK-OV3, BT474, MDA-MB-231, MCF7). In addition to cell lines, the chemoresponse assay was also performed on 55 primary cultures of breast carcinomas. […] Cell lines and specimens were treated with a 10 dose concentration range of lapatinib for 72 hours and stained with DAPI; remaining live cells were counted on an inverted fluorescent microscope.

MDA-MB-231 = experiment: Chemoresponse assay, lapatinib, MDA-MB-231; format: cell-based; details: 72 hours
Protocol: as §1

SK-OV3 = experiment: Chemoresponse assay, lapatinib, SK-OV3; format: cell-based
Protocol: as §1

BT474 = experiment: Chemoresponse assay, lapatinib, BT474; format: cell-based
Protocol: as §1

[1] = system: primary cultures of breast carcinomas; experiment: Chemoresponse assay, lapatinib, primary cultures of breast carcinomas; format: cell-based, human; details: 55 primary breast cultures; 72 hours
Protocol: as §1

H292 = experiment: ChemoFx chemoresponse assay, erlotinib, H292 cell line; format: cell-based, human; details: Log EC50 by dose number, mean of 3 assays
Protocol: (§2) Three human lung tumor-derived immortalized cell lines were tested in this study: H292, H358, and Calu3 (American Type Culture Collection, Manassas, Va.). These cell lines were seeded at 40,000 cells in T25 flasks (PGC Scientifics, Frederick, Md.) and allowed to grow for one week to approximately 90% confluence.
(§3) Cell lines and tissue specimens were processed and tested with the ChemoFx® assay as described elsewhere. Also see, U.S. Pat. Nos. 5,728,541, 6,900,027, 6,887,680, 6,933,129, 6,416,967, 7,112,415, and 7,314,731; and U.S. application Ser. Nos. 10/399,563, 11/504,098, 11/595,967, 11/713,662, and 11/785,984, all of which are hereby incorporated by reference in their entireties, and especially with regard to tissue processing and cell culturing techniques, and assays. Ten doses of erlotinib were prepared by serial dilution. The same 10-dose concentration range was used for the cell lines and the tissue specimens. For each dose, a cytotoxic index (CI) was calculated according to the following formula: CI=Mean cell countdose x/mean cell countcontrol, which represents the ratio of cells killed as a result of the treatment. Cell counts were the average of 3 replicates at each dose for primary cultures and 9 replicates at each dose for immortalized cell lines. […] Adjusted areas under the curve (aAUC) were calculated for each dose-response curve as previously described.

Calu-3 = experiment: ChemoFx chemoresponse assay, erlotinib, Calu-3 cell line; format: cell-based, human; details: Calu3; Log EC50 by dose number, mean of 3 assays
Protocol: as §2, §3

H358 xenograft = details: tumor growth inhibition; cited from earlier work
H358 = experiment: ChemoFx chemoresponse assay, erlotinib, H358 cell line; format: cell-based, human; details: Log EC50 by dose number, mean of 3 assays
Protocol: as §2, §3

[2] = system: primary cultures of lung cancer; experiment: ChemoFx chemoresponse assay, erlotinib, primary cultures of lung cancer; format: cell-based, human; details: 34 lung cancer tumors; 72-hour treatment
Text: Patient tumor specimens: Primary cell cultures were established using tumor specimens procured for research purposes from the following sources: National Disease Research Interchange (Philadelphia, Pa.), Cooperative Human Tissue Network (Philadelphia, Pa.), Forbes Regional Hospital (Monroeville, Pa.), Jameson Hospital (New Castle, Pa.), Saint Barnabas Medical Center (Livingston, N.J.), Hamot Medical Center (Erie, Pa.), and Windber Research Institute (Windber, Pa.). The tumors were removed from the patient at the time of surgery, placed in the supplied 125-mL bottle containing sterile McCoy's shipping medium (Mediatech, Herndon, Va.), and shipped overnight to Precision Therapeutics, Inc. laboratories (Pittsburgh, Pa.).
Cell lines and tissue specimens were processed and tested with the ChemoFx® assay as described elsewhere. Also see, U.S. Pat. Nos. 5,728,541, 6,900,027, 6,887,680, 6,933,129, 6,416,967, 7,112,415, and 7,314,731; and U.S. application Ser. Nos. 10/399,563, 11/504,098, 11/595,967, 11/713,662, and 11/785,984, all of which are hereby incorporated by reference in their entireties, and especially with regard to tissue processing and cell culturing techniques, and assays. Ten doses of erlotinib were prepared by serial dilution. The same 10-dose concentration range was used for the cell lines and the tissue specimens. For each dose, a cytotoxic index (CI) was calculated according to the following formula: CI=Mean cell countdose x/mean cell countcontrol, which represents the ratio of cells killed as a result of the treatment. Cell counts were the average of 3 replicates at each dose for primary cultures and 9 replicates at each dose for immortalized cell lines. Dose response curves were generated using the CI at each dose. Adjusted areas under the curve (aAUC) were calculated for each dose-response curve as previously described.

H292 xenograft = details: tumor growth inhibition; cited from earlier work
Calu3 xenograft = details: tumor growth inhibition; cited from earlier work

CS(=O)(=O)CCNCc1ccc(-c2ccc3ncnc(Nc4ccc(OCc5cccc(F)c5)c(Cl)c4)c3c2)o1 [lapatinib, Lapatinib]
response to lapatinib treatment (MCF7): responsive | EC50 (MCF7; Homo sapiens): ~10 µM | response to lapatinib treatment (MDA-MB-231): responsive | EC50 (MDA-MB-231; Homo sapiens): ~10 µM | response to lapatinib treatment (SK-OV3; 72 hours): responsive | EC50 (SK-OV3; Homo sapiens, SK-OV-3, 72 hours): ~10 µM | response to lapatinib treatment (BT474; 72 hours): responsive | EC50 (BT474; Homo sapiens, BT-474, 72 hours): ~10 µM | specimens non-responsive to lapatinib [1]: 76% | specimens responsive to lapatinib [1]: 9% | specimens with intermediate response to lapatinib [1]: 15%

C#Cc1cccc(Nc2ncnc3cc(OCCOC)c(OCCOC)cc23)c1 [erlotinib, Erlotinib hydrochloride]
Mean (Log EC50*) (H292): 4.731 dose number | Mean (Log EC50*) (Calu-3): 6.715 dose number | Xenograft TGI (%) [22] (H358 xenograft): 25% | Mean (Log EC50*) (H358): 5.925 dose number | specimens Intermediate Responsive to erlotinib [2]: 20.6% | specimens Non-Responsive to erlotinib [2]: 70.6% | specimens Responsive to erlotinib [2]: 8.8% | Xenograft TGI (%) [22] (H292 xenograft): 85% | Xenograft TGI (%) [22] (Calu3 xenograft): 67%
